Read-outs that look alike come from different tables or passages of the source.
Key:
[1] = biological target: human norepinephrine transporter (Homo sapiens, UniProt P23975); assay: Inhibition of [3H]NE transport into HEK-293 cells expressing the human transporter; details: read-out: Inhibitor Constant (Ki), NE transport; Geometric Mean ± SEM; HEK-293 whole cells
[2] = biological target: T1, rat dopamine transporter, synaptosomal preparations (Rattus norvegicus, UniProt P23977); assay: Inhibition of [3H]DA reuptake in rat brain synaptosomes (striatum); format: biochemical; details: Geometric Mean ± SEM; rat brain synaptosomes; read-out: Inhibitor Constant (Ki), DA transport
T1 construct: and striatal tissues for transport of dopamine; from tissue; host or cells: rat striatum synaptosomes (male Sprague-Dawley)
Method: (§1) The dissected tissues were separately homogenized in 20 volumes (cortical) or 40 volumes (striatal) of ice-cold, oxygenated HEPES buffer 0.32 M sucrose containing 11 mM glucose (pH 7.4) in a glass Potter-Elvehjem homogenizer with Teflon® pestle (8 strokes, 900 rpm). The homogenates were centrifuged at 1,000×g for 10 minutes. The resulting supernatant was decanted and further centrifuged at 20,000×g for 20 minutes at 4° C. […] The synaptosomal protein concentration was determined by using the BCA assay (Pierce Biotechnology Inc, Rockford, Ill.), according to the manufacturer's instructions. Synaptosomal protein (1.0-2.5 mg) was suspended in 1 mL oxygenated incubation buffer as defined above. Test amine compound was pre-incubated with the synaptosomal preparation for 30 minutes at 37° C. in a shaking water bath (80 oscillations/minute).

[3] = biological target: T2, rat norepinephrine transport, synaptosomal preparations (Rattus norvegicus, UniProt Q63380); assay: Inhibition of [3H]NE reuptake in rat brain synaptosomes (occipital cortex); format: biochemical; details: Geometric Mean ± SEM; rat brain synaptosomes; read-out: Inhibitor Constant (Ki), NE transport
T2 construct: from tissue; host or cells: rat occipital cortex synaptosomes (male Sprague-Dawley)
Method: as §1

[4] = test system: rat 5-HT, NE and DA transport, synaptosomal preparations; assay: Rat brain synaptosomal transport: rank order of potency; format: biochemical; details: from Ki values; S = 5HT, N = NE, D = DA
Method: as §1

[5] = biological target: human dopamine transporter (Homo sapiens, UniProt Q01959); assay: Inhibition of [3H]DA transport into HEK-293 cells expressing the human transporter; details: read-out: Inhibitor Constant (Ki), DA transport; Geometric Mean ± SEM; HEK-293 whole cells
[6] = test system: human serotonin, norepinephrine and dopamine transporters; assay: Transport into cells expressing human transporters: rank order of potency, comparison with rat; format: cell-based; details: from Ki values; S = 5-HT, N = NE, D = DA
[7] = biological target: human serotonin transporter (Homo sapiens, UniProt P31645); assay: Inhibition of [3H]5-HT transport into HEK-293 cells expressing the human transporter; details: read-out: Inhibitor Constant (Ki), 5-HT transport; Geometric Mean ± SEM; HEK-293 whole cells
[8] = biological target: T3, rat serotonin transporter, synaptosomal preparations (Rattus norvegicus, UniProt P31652); assay: Inhibition of [3H]5-HT reuptake in rat brain synaptosomes (frontal cortex); format: biochemical; details: Geometric Mean ± SEM; rat brain synaptosomes; read-out: Inhibitor Constant (Ki), 5HT transport
T3 construct: from tissue; host or cells: rat frontal cortex synaptosomes (male Sprague-Dawley)
Method: as §1

hSERT, hNET, hDAT = assay: Human transporter binding: rank order and range of potency over the three transporters; details: for Potency (rank-order of potency of binding; S = hSERT, N = hNET, D = hDAT): from KD values; for Potency Range (difference between most potent and least potent binding): ratio of KD over hSERT, hNET, hDAT
Source text: (§2) The program was modified to calculate the Hill coefficient (nH). Data are presented as geometric mean±S.E.M. of at least three independent experiments. One-component models and two-component models were compared using the root mean square error of each fit and the F test.

[9] = biological target: T4, human serotonin transporter (hSERT) (Homo sapiens, UniProt P31645); assay: Radioligand binding to cloned hSERT, [3H]citalopram, HEK-293 cell membranes
T4 construct: expressed in transfected cells; host or cells: HEK-293, stably transfected
Method: (§3) HEK-293 cells expressing the recombinant hSERT or hDAT were incubated with Dulbecco's modified Eagles medium (MEM) supplemented with 0.1 mM nonessential amino acid solution for MEM, 5% v/v fetal bovine serum and 1 U/mL penicillin/streptomycin solution. Cells expressing the hNET transporter were incubated with Dulbecco's modified Eagles medium supplemented with 10% v/v fetal bovine serum and 100 U/mL penicillin/streptomycin solution and 2 mM L-glutamine. The cells were grown until 70-80% confluent on 175 cm^2 flasks in a humidified 10% CO2/90% air environment at 37° C., with the selecting antibiotic Geneticin sulfate at 250 μg/mL. The cells were incubated in 10% CO2, 90% air at 37° C. and 100% humidity.
(§4) Cell membranes containing hSERT, hNET, or hDAT were prepared from the cell lines to assay ligand binding for each of the transporters. […] The washed cells were incubated for 5 minutes at 37° C. in 10 mL solution 1 containing 100 mM ethylene glycol-bis N,N,N′,N′-tetraacetic acid (EGTA). The cells were then scraped from the flask surface with a rubber spatula, placed into a centrifuge tube, and collected by centrifugation at 1000×g for 5 minutes at 4° C. The resulting supernatant was discarded, and the cell pellet was resuspended in 0.5 to1.0 mL of the appropriate binding buffer (described below). The resuspended cell pellet was homogenized using a Polytron for 10 seconds at setting 6. The resulting homogenate was centrifuged at about 36,000×g for 10 minutes at 4° C. The supernatant was discarded, and the pellet was resuspended in the same volume of the appropriate binding buffer and centrifuged again. The supernatant was discarded, and the final pellet containing cell membranes was resuspended in the appropriate binding buffer and stored at −80° C. until use.
Radioligand binding assays for the indicated transporters were performed as follows. To assess binding to the cloned hSERT, cells expressing hSERT were homogenized in 50 mM Tris-HCl with 120 mM NaCl and 5 mM KCl (pH 7.4). The binding reaction consisted of 10 μg cell membrane protein, […] [^3H]citalopram (citalopram, [N-methyl-^3H], specific activity 79.0 Ci/mmol; PerkinElmer, Boston, Mass.), and varying concentrations of either unlabeled citalopram or the test compound. A reaction to determine non-specific binding consisted of 10 μg cell membrane protein, 0.5 nM [^3H]citalopram, and 1 μM final concentration of unlabeled citalopram. The reactions were incubated at 22° C. for 60 minutes. Following incubation, the reactions were terminated by rapid filtration through separate GF/B filter strips pretreated with 0.2% polyethylenimine in a 48-well Brandel cell harvester. The cell membrane-containing filter strips were then rinsed five times with ice-cold 0.9% NaCl. After rinsing, individual filters were cut from the strip and placed in a scintillation vial containing 6.5 mL of Redi-Safe (Beckman-Coulter, Fullerton, Calif.).
as §2

[10] = biological target: T5, human dopamine transporter (hDAT) (Homo sapiens, UniProt Q01959); assay: Radioligand binding to cloned hDAT, [3H]WIN35428, HEK-293 cell membranes
T5 construct: expressed in transfected cells; host or cells: HEK-293, stably transfected
Method: as §3, §4
To assess binding to the cloned hDAT, cells expressing hDAT were homogenized in 50 mM Tris-HCl with 120 mM NaCl (pH 7.4). The binding reaction contained 15 μg cell membrane protein, 1 nM [^3H]WIN35428 (WIN35428, [N-methyl-^3H], specific activity 85.9 Ci/mmol; PerkinElmer, Boston, Mass.), and varying concentrations of either unlabeled WIN35428 or the test compound. A reaction to determine non-specific binding contained 15 μg cell membrane protein, 1 nM [^3H]WIN35428, and 10 μM final concentration of unlabeled WIN35428. The reactions were incubated at 22° C. for 1 hour. Following incubation, the reactions were terminated by rapid filtration through separate GF/B filter strips pretreated with 0.2% polyethylenimine in a 48-well Brandel cell harvester. The cell membrane-containing filter strips were then rinsed five times with ice-cold 0.9% NaCl. After rinsing, individual filters were cut from the strip and placed in a scintillation vial containing 6.5 mL of Redi-Safe (Beckman-Coulter, Fullerton, Calif.).
as §2

Male Sprague-Dawley rats = assay: Forced swim test in rats; format: in vivo, rat; details: 5 mg/kg IP
Method: When rats are placed in a cylinder of water from which they cannot escape, they will remain immobile in the water for the majority of the test.
Water was changed between trials, and the procedure involved a pretest and a 5-minute test separated by 24 hours. During the pretest, rats (adapted to the experimental room for no less than one hour) were placed in the cylinder for 15 minutes. Following this initial exposure, the rats were dried with towels and transferred to a “drying cage” situated under a warming lamp. […] The following day, rats were transferred to the experimental room and acclimated for at least one hour.
The rat was considered immobile when floating motionless or making only those movements necessary to keep its head above the surface of the water. Scores for each behavior (swimming or immobility) were expressed as total counts per 5-minute session. Statistical analysis was performed using ANOVA followed by the Tukey test for post-hoc comparisons.

[11] = biological target: T6, human norepinephrine transporter (hNET) (Homo sapiens, UniProt P23975); assay: Radioligand binding to cloned hNET, [3H]nisoxetine, HEK-293 cell membranes
T6 construct: expressed in transfected cells; host or cells: HEK-293, stably transfected
Method: as §3, §4
To assess binding to the cloned hNET, cells expressing hNET were homogenized in 50 mM Tris-HCl with 300 mM NaCl and 5 mM KCl (pH 7.4). The binding reaction consisted of 5 μg cell membrane protein, 0.5 nM [^3H]nisoxetine (nisoxetine HCl, [N-methyl-^3H], specific activity 82.0 Ci/mmol; Amersham, Arlington Hts., Ill.), and varying concentrations of either unlabeled nisoxetine or the test compound. A reaction to determine non-specific binding consisted of 5 μg cell membrane protein, 0.5 nM [^3H]nisoxetine, and 1 μM final concentration of unlabeled nisoxetine. The reactions were incubated at 22° C. for 60 minutes. Following incubation, the reactions were terminated by rapid filtration through separate GF/B filter strips pretreated with 0.2% polyethylenimine in a 48-well Brandel cell harvester. The cell membrane-containing filter strips were then rinsed five times with ice-cold 0.9% NaCl. After rinsing, individual filters were cut from the strip and placed in a scintillation vial containing 6.5 mL of Redi-Safe (Beckman-Coulter, Fullerton, Calif.).
as §2

hERG = hERG (Homo sapiens, UniProt Q12809); assay: hERG assay: block of rubidium ion (Rb+) efflux from cells expressing hERG
Method: Human “ether-a-go-go” (hERG) is an ion channel. Blockade of this channel can be predictive of causing cardiac arrhythmias in humans. hERG assays were performed to measure the ability of a compound to block rubidium ion (Rb^+) efflux from cells expressing hERG. Cells were pre-loaded with Rb^+, incubated with test compound, and then exposed to a buffer that opens the channel and allows the efflux of ions. Compounds as powder were dissolved in 100% DMSO to prepare 100 mM stock solutions. […] The stocks were stored at 23° C.
The range of doses for the test compounds was 30 nM through 100,000 nM.

CYP2D6 = biological target: T7, CYP2D6 (Homo sapiens, UniProt P10635); assay: CYP2D6 inhibition, CYP2D6/AMMC kit (BD Biosciences), fluorescent substrate; format: in vitro ADME; details: recombinant human P450, AMMC substrate; read-out: Mean CYP2D6 (IC50)
T7 construct: purchased BD Biosciences 459200
Source text: This kit includes the use of a fluorescent P450 substrate (AMMC or 3-[2-(N,N-diethyl-N-methylamino)ethyl]-7-methoxy-4-methylcoumarin) and recombinant human P450.

T5 sequence (Q01959 whole entry): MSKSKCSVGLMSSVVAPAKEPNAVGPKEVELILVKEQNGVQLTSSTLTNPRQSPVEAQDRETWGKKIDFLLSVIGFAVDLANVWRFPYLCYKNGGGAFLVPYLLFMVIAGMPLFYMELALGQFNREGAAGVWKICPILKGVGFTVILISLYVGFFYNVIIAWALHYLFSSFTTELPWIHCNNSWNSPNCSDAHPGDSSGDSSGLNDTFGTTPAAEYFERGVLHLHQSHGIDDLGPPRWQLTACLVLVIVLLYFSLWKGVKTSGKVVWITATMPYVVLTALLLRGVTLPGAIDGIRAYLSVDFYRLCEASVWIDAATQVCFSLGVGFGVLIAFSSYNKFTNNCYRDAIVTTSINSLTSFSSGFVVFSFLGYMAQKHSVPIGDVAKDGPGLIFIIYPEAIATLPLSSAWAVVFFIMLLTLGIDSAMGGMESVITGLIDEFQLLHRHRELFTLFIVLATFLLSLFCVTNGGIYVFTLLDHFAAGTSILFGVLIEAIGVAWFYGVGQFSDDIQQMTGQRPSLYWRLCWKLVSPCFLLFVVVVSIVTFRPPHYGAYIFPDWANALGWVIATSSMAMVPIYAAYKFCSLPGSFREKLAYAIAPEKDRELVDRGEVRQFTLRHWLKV
T4 sequence (P31645 whole entry): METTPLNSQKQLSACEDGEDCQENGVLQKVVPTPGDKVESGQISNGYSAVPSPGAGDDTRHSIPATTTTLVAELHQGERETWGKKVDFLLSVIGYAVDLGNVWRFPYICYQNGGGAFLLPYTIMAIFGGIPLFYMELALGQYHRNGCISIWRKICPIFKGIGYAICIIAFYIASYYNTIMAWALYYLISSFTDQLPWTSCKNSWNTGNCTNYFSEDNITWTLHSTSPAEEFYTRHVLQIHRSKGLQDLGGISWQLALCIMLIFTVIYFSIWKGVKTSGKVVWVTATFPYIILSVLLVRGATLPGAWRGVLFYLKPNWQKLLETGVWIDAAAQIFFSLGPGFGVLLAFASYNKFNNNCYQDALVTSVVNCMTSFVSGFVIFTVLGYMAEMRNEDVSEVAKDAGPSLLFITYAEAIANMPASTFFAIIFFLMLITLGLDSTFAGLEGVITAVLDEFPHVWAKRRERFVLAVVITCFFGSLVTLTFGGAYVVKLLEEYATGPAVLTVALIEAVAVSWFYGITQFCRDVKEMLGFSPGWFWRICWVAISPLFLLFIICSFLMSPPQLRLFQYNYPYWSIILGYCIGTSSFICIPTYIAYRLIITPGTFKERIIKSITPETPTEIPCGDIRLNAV
hERG, sequence (Q12809 whole entry): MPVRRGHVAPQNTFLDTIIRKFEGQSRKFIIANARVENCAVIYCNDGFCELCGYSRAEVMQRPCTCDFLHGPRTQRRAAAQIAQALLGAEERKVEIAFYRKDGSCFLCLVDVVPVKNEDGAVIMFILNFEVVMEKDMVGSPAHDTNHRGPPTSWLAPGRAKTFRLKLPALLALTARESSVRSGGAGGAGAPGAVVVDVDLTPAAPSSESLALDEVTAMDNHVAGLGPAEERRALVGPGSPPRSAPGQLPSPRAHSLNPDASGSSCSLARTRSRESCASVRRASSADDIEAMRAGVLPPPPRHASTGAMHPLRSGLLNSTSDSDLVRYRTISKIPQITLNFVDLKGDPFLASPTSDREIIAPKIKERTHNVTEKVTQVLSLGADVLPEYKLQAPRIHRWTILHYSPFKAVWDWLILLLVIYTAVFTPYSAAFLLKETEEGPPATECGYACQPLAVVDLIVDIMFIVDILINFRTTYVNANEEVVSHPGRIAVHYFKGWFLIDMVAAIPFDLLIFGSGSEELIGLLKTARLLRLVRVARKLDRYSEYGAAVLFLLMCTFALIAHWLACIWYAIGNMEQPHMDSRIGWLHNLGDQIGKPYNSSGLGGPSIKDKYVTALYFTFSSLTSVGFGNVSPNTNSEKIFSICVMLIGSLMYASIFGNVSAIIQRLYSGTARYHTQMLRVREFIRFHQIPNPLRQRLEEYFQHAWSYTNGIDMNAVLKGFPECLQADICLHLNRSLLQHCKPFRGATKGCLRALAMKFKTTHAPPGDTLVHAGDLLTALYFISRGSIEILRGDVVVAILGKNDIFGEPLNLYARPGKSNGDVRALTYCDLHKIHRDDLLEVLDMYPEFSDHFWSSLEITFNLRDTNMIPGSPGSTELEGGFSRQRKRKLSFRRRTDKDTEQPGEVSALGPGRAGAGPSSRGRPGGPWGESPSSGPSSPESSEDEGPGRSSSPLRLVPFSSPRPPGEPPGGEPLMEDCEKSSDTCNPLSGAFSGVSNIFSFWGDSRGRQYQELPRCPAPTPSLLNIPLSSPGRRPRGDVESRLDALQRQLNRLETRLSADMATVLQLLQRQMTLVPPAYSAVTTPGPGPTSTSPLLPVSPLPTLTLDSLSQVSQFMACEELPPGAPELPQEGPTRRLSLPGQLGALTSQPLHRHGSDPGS
T2 sequence (Q63380 1-617): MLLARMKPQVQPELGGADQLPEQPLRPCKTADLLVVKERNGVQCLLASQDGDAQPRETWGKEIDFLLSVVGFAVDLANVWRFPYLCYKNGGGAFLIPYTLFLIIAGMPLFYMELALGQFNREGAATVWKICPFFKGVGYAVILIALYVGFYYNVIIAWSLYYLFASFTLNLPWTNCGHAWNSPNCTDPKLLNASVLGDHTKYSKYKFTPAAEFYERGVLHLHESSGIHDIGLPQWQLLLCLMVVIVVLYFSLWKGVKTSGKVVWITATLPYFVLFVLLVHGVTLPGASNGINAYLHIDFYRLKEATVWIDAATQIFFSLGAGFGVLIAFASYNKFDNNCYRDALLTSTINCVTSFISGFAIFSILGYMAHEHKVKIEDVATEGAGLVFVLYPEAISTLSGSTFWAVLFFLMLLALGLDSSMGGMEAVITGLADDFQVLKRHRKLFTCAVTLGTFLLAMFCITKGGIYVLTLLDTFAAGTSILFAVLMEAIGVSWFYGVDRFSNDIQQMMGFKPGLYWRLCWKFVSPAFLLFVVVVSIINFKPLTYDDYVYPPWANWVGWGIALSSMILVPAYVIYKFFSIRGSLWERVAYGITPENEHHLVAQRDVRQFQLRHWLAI
T7 sequence (P10635 whole entry): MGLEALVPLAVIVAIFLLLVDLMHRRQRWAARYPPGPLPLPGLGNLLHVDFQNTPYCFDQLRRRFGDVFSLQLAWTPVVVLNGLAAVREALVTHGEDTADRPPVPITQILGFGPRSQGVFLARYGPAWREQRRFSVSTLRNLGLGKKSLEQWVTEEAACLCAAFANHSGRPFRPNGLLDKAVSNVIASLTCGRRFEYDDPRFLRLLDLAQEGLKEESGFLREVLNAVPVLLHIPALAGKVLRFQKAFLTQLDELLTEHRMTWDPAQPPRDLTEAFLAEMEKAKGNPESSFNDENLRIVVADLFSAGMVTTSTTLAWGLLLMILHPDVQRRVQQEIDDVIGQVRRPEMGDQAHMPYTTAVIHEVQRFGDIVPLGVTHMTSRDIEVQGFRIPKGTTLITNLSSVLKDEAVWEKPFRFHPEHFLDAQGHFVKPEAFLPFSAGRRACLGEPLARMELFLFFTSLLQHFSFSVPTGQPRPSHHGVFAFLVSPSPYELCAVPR
T3 sequence (P31652 whole entry): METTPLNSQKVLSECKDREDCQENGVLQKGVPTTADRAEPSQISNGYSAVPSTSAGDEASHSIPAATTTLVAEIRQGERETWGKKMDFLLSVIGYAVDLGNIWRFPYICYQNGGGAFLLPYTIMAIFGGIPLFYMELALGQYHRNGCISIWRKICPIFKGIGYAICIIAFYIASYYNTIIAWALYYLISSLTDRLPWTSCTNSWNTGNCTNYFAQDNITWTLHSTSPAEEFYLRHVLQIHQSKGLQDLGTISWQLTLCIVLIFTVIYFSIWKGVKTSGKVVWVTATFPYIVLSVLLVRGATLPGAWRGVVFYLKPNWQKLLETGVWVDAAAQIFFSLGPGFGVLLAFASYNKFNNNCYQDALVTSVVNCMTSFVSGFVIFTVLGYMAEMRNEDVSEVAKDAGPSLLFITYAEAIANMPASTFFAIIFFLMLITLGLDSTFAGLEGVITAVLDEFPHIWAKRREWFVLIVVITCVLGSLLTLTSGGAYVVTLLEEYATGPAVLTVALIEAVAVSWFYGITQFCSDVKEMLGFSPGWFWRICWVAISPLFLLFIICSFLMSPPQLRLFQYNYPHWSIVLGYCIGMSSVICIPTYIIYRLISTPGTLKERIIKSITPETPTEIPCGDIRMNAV
human dopamine transporter, sequence (Q01959 whole entry): as the sequence (Q01959 whole entry) above
human serotonin transporter, sequence (P31645 whole entry): as the sequence (P31645 whole entry) above

SMILES: CNCC(c1ccc2ccccc2c1)C(OC)c1ccccc1 (racemic) [MCJ001-OMe-(±)-SR, (2R,3S/2S,3R)-3-methoxy-N-methyl-2-(naphthalen-2-yl)-3-phenylpropan-1-amine]
- Ki [1]: 20 ± 1 nM
- Ki [2]: 1030 ± 30 nM
- Ki [3]: 210 ± 30 nM
- Potency (rank order, transport into rat brain synaptosomal preparations) [4]: S > N > D
- Ki [5]: 2400 nM
- Potency (rank order, transport into cells expressing human transporters) [6]: N > S > D
- Ki [7]: 60 ± 7 nM
- Ki [8]: 90 ± 36 nM
- Potency (rank-order of potency of binding; S = hSERT, N = hNET, D = hDAT) (hSERT, hNET, hDAT): N = D > S
- Potency Range (difference between most potent and least potent binding) (hSERT, hNET, hDAT): 1.2 fold
- Kd ([9]; Geometric Mean ± SEM, HCl salts, read-out: Equilibrium Dissociation Constant (KD) for Transporter Binding, hSERT (S)): 710 ± 50 nM
- Kd ([10]; Geometric Mean ± SEM, HCl salts, read-out: Equilibrium Dissociation Constant (KD) for Transporter Binding, hDAT (D)): 600 ± 100 nM

SMILES: CNC[C@H](c1ccc2ccccc2c1)[C@H](F)c1ccccc1 [MCJ001-F-SS, (2S,3S)-3-fluoro-N-methyl-2-(naphthalen-2-yl)-3-phenylpropan-1-amine]
- Immobility in forced swim test vs saline (Male Sprague-Dawley rats): statistically (P<0.04) less immobility
- Swimming in forced swim test vs saline (Male Sprague-Dawley rats): statistically (P<0.04) more swimming behavior
- Antidepressant activity in forced swim test compared with imipramine (15 mg/kg IP) (Male Sprague-Dawley rats; FIG. 12A): antidepressant activity that was similar to that observed in rats treated with the positive control
- Kd [11]: 1.3 ± 0.2 nM
- IC50 (hERG): 51800 nM
- Blocking of hERG channel compared with PRC200-SS (hERG; in words): weaker than PRC200-SS at blocking this channel
- Potency (rank-order of potency of binding; S = hSERT, N = hNET, D = hDAT) (hSERT, hNET, hDAT): S > N > D
- Potency Range (difference between most potent and least potent binding) (hSERT, hNET, hDAT): 29 fold
- IC50 (CYP2D6): 60 nM
- Kd [9]: 0.82 ± 0.09 nM
- Binding at hSERT compared to PRC200-SS ([9]; in words): greater binding at hSERT
- Kd [10]: 23.5 ± 0.9 nM
- Binding at hDAT compared to PRC200-SS ([10]; in words): Enhanced binding to hDAT

From patent US8440724B2, “Inhibiting neurotransmitter reuptake” (Mayo Foundation for Medical Education and Research, priority 2008, dated 2013)
